Source: PMC9317966, “Structure-function analysis of the AMPK activator SC4 and identification of a potent pan AMPK activator” (Biochemical Journal, 2022)

What was measured:
Format in all cases: cell-based
[1] = test system: HEK293T/17 cells expressing WT γ1AMPK; test: α-Thr172 phosphorylation immunoblot, HEK293T/17 cells transiently expressing WT γ1AMPK; settings: WT γ1-expressing cells, 2.5 µM, 60 min
Description: (§1) To explore this dose-dependent response, we used HEK293T/17 cells transiently expressing WT γ1AMPK or the AMP-insensitive γ1 mutant R299G (Supplementary Figure S4A). […] One explanation is that 2.5 µM MK-8722 caused indirect activation of AMPK (α-Thr172 phosphorylation) by inducing a metabolic stress leading to rises in AMP/ATP and ADP/ATP ratios. We examined the effect of MK-8722 incubation on C2C12 mitochondrial function (Supplementary Figure S4B–I).
(§2) HEK293T/17, HEK293T, COS7, HeLa and PC3 cells (ATCC) were maintained in Dulbecco's Modified Eagle's medium (DMEM; Sigma–Aldrich) supplemented with 10% fetal bovine serum (FBS; Assay Matrix) at 37°C and 5% CO2. Primary hepatocytes from wild type mice were prepared using the collagenase perfusion method and cultured as described previously. […]
(§3) All samples were separated on 12% SDS–PAGE gels and transferred to an Immobilon-FL PVDF membrane (Merck Millipore). […] Immunoblots were visualised on the Odyssey Infrared Imaging System (LI-COR Biosciences) and immunoreactive bands analysed and quantified using Image Studio Software (LI-COR Biosciences).
(§4) Lysates were assessed for phosphorylation of AMPKα-Thr172 by immunoblot. n = 3, data presented as mean T172 phosphorylation (arbitrary units) ± SEM. […] (J) Lysates were assessed for total protein content following the respiration assay.

[2] = test system: HEK293T/17 cells expressing γ1-R299G AMPK; test: α-Thr172 phosphorylation immunoblot, HEK293T/17 cells expressing AMP-insensitive γ1 mutant R299G; settings: 2.5 µM
Description: as §1, §2, §3, §4

HEK293T cells [3] = test: Adenylate energy charge by LC-MS in HEK293T cells; settings: MSG011 up to 40 µM, 1 h
Description: HEK293T cell cultures grown in six-well plates were gently washed in ice cold PBS, lysed with 150 µl of ice cold 0.5 M perchloric acid (Univar) and clarified by centrifugation (16 000g, 3 min, 4°C). An amount of 75 µl of clarified lysate was neutralised with 25 µl of ice cold 2.3 M KHCO3 (Sigma–Aldrich), incubated on ice for 5 min and then centrifuged (16 000g, 3 min, 4°C). Supernatants were collected for analysis by liquid chromatography mass spectrometry–mass spectrometry (LC–MS/MS).
Adenine nucleotide metabolites were measured by LC–MS/MS with modifications to our previously described method. A QTRAP 5500 mass spectrometer (AB Sciex) was operated with the turbo V ion source linked to Prominence UFLCXR LC-20ADXR pumps (Shimadzu), SIL-20AC HT autosampler (Shimadzu) and CTO-20A HPLC column oven (Shimadzu). Both LC and MS instruments were controlled and managed with the Analyst 1.7.1 software (AB Sciex). Nitrogen was provided by a Genius NM3G nitrogen gas generator (PEAK Scientific). […] Data was analysed with MultiQuant 3.0.2 software (AB Sciex) using area under the LC curve. Calibration curves were determined by linear regression of the peak area ratio of each nucleotide and were required to have a correlation coefficient (R^2) of >0.98. […] AEC was calculated from the ratios of [AMP], [ADP] and [ATP] […]

HEK293T cells [4] = test: Immunoblot of AMPK signalling in HEK293T cells; settings: 2.5 µM, 1 h
Description: (§5) To evaluate the efficacy of MSG011 in cellulo, we incubated mouse primary hepatocytes with 2.5 µM MSG011 for 60 min and tracked changes in phosphorylation of AMPK α-Thr172 (marker of activation) and the AMPK substrate acetyl-CoA carboxylase (ACC) Ser79 (AMPK signalling marker).
(§6) HEK293T/17, HEK293T, COS7, HeLa and PC3 cells (ATCC) were maintained in Dulbecco's Modified Eagle's medium (DMEM; Sigma–Aldrich) supplemented with 10% fetal bovine serum (FBS; Assay Matrix) at 37°C and 5% CO2. Primary hepatocytes from wild type mice were prepared using the collagenase perfusion method and cultured as described previously. Cultures were incubated with fresh DMEM (no FBS) for 2 h prior to 1 h treatment with MSG011 (dissolved in DMSO) or phenformin (dissolved in H2O). Adherent HEK293T/17 cells at ∼50% confluency were triply transfected with AMPK α1 (pcDNA3.1 vector), β1 (COOH-terminal MYC fusion, pcDNA3.1 vector) and WT γ1 or γ1-R299G mutant (NH2-terminal HA fusion, pMT2 vector) in the presence of FuGENE HD transfection reagent (Promega) as per the manufacturers protocol. […]
as §3

[5] = test system: mouse primary hepatocytes; test: Immunoblot of AMPK signalling in mouse primary hepatocytes; settings: 2.5 µM, 60 min
Description: as §5, §6, §3

| Compound | phosphorylation of α-Thr172 [1] | decrease of induced α-Thr172 phosphorylation relative to WT γ1 cells [2] [%] | effect on phosphorylation of α-Thr172 ([2]; 60 min) | adenylate energy charge (AEC) (HEK293T cells [3]) | AMPK signalling (phosphorylation of ACC-Ser79 and raptor-Ser792) (HEK293T cells [4]) | α-Thr172 phosphorylation (HEK293T cells [4]) | phosphorylation of AMPK α-Thr172 [5] |
| --- | --- | --- | --- | --- | --- | --- | --- |
| O[C@@H]1CO[C@H]2[C@@H]1OC[C@H]2Oc1nc2nc(-c3ccc(-c4ccccc4)cc3)c(Cl)cc2[nH]1 [MK-8722, reference compound] | significantly increased | ~55 | largely abrogated |  |  |  |  |
| CC(=O)NC1CC=C(c2ccc(-c3nc4nc(Oc5ccc(C)c(C(=O)O)c5)[nH]c4cc3Cl)cc2)CC1 (stereo not shown) [MSG011, 5-((5-(4′-Acetamido-2′,3′,4′,5′-tetrahydro-[1,1′-biphenyl]-4-yl)-6-chloro-1H-imidazo[4,5-b]pyridin-2-yl)oxy)-2-methylbenzoic acid] |  |  |  | unaffected | at levels comparable to extreme energy stress | independent of changes to α-Thr172 phosphorylation | independently of significant net phosphorylation of AMPK α-Thr172 |
